Measurements reported in patent US12129490B2, “Methods for generating hepatocytes and cholangiocytes from pluripotent stem cells” (UNIVERSITY HEALTH NETWORK, priority 2018, dated 2024).

Legend:
[1] = system: H9- and iPSC (38-2)-derived hepatic aggregates
Description: HPSCs were maintained on irradiated mouse embryonic feeder cells in hESC media consisting of DEME/F12 (50:50; Gibco) supplemented with 20% Knock-out serum replacement (KSR) as described previously^44. Prior to the generation of embryoid bodies (EBs), hESCs were passaged onto Matrigel™-coated plates for 1 day to deplete the population of feeder cells. […] At day 1, the EBs were harvested and re-cultured in induction medium A that consisted of StemPRO-34® supplemented with glutamine (2 mM), ascorbic acid ([…]; Sigma), MTG ([…]; Sigma), basic fibroblast growth factor (bFGF; 2.5 ng/ml), activin A (100 ng/ml), Wnt3a (25 ng/ml) and BMP4 (0.25 ng/ml) for 3 days. On day 4, the EBs were harvested and re-cultured in StemPRO-34® supplemented with bFGF (10 ng/ml), activin A (100 ng/ml), Wnt3a (25 ng/ml) and BMP4 (0.25 ng/ml) (medium B). EBs were harvested at day 6, dissociated to single cells and the cells cultured for 2 days on Matrigel™-coated 12 well plates at a concentration of 4×10^5 cells in media B without Wnt3A and with activin A at a concentration of 50 ng/ml. At day 8, medium B was replaced with hepatic specification media that consisted of Iscove's Modified Dulbecco's Medium (IMDM) supplement with 1% vol/vol B27 supplement (Invitrogen: A11576SA), ascorbic acid, MTG, FGF10 (50 ng/ml) (from day 8 to day 10), bFGF (20 ng/ml) (from day 10 to day 14), and BMP4 (50 ng/ml). Media was changed every 2 days from day 8 to day 14. To promote maturation of HES2-derived hepatic cells, they were cultured in maturation media A for 12 days. Maturation media A consisted of IMDM with 1% vol/vol B27 supplement, ascorbic acid, Glutamine, MTG, Hepatocyte growth factor (HGF) (20 ng/ml), Dexamethasone Dex) (40 ng/ml) and Oncostatin M (20 ng/ml). Aggregates were generated from the population at day 26 of culture. To generate aggregates the cells were dissociated with collagenase and TrypleLE and then cultured in six well ultra-low cluster dishes at a concentration of 6×10^5 cells per well in maturation medium A supplemented with Rho-kinase inhibitor and 0.1% BSA. Aggregates were maintained under these conditions until day 32, with media changes every 3 days. […] Media was changed every 3 days. To generate hepatocyte like cells from H9, H1 and IPS cells, the following changes were made to the hepatic specification media. […] All cytokines were human and purchased from R&D Systems, unless stated otherwise. EB and monolayer cultures were maintained in a 5% CO2, 5% O2, 90% N2 environment. Aggregation cultures were maintained in a 5% CO2 ambient air environment.
Total RNA was prepared with RNAqueous® Micro Kit (Ambion) and treated with RNase-free DNase (Ambion). 500 ng to 1 μg RNA was reverse transcribed into cDNA using random hexamers and Oligo(dT) with Superscript® III Reverse Transcriptase (Invitrogen). qPCR was performed on a MasterCycler® ep realplex (Eppendorf) using A QuentiFast SYBR Green PCR Kit (Quiagen) as described previously^45. Expression levels were normalized to the housekeeping gene TATA box binding protein (TBP). […] Total human adult and fetal liver RNA was purchased from Clontech. Two primary hepatocyte RNA samples were provided by Dr Stephen C. […] Two primary hepatocyte samples were cultured for two day and were harvested.

hepatic aggregates = test: Indocyanine green (ICG) uptake of hepatic aggregates; assay type: cell-based, human; conditions: day 44 aggregates
Description: The indocyanine green (ICG, Sigma) solution was added to the cells at final concentration of 1 mg/ml ICG in HCM (Lonza). The cells were incubated at 37° C. for 1 hour, washed 3 times with PBS, and then examined with an inverted Microscope (Leica).

CYP2B6 = target: T1, CYP2B6 (Homo sapiens, UniProt P20813); test: CYP2B6 activity, hydroxylation of bupropion by HPLC; assay type: in vitro ADME; conditions: 8-Br-cAMP-treated cells versus primary hepatocytes
T1 sequence (P20813 1-491): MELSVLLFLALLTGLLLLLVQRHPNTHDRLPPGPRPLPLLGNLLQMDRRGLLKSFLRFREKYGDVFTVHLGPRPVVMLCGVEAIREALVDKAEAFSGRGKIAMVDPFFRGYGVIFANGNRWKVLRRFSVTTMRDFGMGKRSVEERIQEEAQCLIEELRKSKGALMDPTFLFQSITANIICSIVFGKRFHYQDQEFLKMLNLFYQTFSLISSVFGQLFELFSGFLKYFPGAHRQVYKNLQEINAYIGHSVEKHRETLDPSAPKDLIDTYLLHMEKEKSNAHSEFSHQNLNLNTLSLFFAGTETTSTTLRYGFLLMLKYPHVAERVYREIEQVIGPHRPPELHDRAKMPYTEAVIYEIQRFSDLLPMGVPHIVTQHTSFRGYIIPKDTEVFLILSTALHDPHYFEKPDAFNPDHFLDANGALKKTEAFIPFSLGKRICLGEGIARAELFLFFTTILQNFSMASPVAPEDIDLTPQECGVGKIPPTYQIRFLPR
Description: Formation of the metabolite O-hydroxy-bupropion from bupropion was measured by HPLC. Activity is presented per 50,000 cells, (n=3).

CYP1A2 = target: T2, CYP1A2 (Homo sapiens, UniProt P05177); test: CYP1A2 activity, phenacetin metabolism by HPLC; conditions: 8-Br-cAMP-treated cells versus primary cultured hepatocytes
T2 sequence (P05177 1-516): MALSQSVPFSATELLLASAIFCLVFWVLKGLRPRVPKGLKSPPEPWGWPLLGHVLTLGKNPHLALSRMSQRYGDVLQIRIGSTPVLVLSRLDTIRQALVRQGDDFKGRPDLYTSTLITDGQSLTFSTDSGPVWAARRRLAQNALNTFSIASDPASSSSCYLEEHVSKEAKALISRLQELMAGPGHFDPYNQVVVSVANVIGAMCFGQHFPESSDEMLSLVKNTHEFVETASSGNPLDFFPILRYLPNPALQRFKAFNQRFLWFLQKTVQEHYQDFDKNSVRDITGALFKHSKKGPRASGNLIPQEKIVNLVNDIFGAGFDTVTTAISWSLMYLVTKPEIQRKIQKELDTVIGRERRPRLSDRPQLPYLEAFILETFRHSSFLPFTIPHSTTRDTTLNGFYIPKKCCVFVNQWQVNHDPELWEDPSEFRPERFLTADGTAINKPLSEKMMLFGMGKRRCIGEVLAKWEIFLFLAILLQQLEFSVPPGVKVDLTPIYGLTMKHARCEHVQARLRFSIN

Nc1ncnc2c1nc(Br)n2[C@@H]1O[C@@H]2COP(=O)(O)O[C@H]2[C@H]1O [8-Br-cAMP, 8-bromoadenosine-3′5″-cyclic monophosphate]
expression of CYP1A2 [1]: 100 fold | expression of CYP2B6 [1]: 10 fold | expression of CYP3A4 [1]: 16 fold | expression of CYP3A4, CYP1A2, CYP2B6 and UGT1A1 [1]: as high as those in primary hepatocytes | expression of UGT1A1 ([1]; H9-derived aggregates): 16 fold | ICG staining of aggregates (hepatic aggregates): almost all treated aggregates stained with ICG | CYP2B6 activity, hydroxylation of bupropion (CYP2B6): comparable to those found in primary hepatocytes | O-deethylation of phenacetin (CYP1A2 activity) (CYP1A2): as high as primary cultured hepatocytes
